# Measurements: patent US8329726B2, “Inhibitors of VEGF receptor and HGF receptor signaling” (MethylGene Inc., priority 2005, dated 2012)
# Like-named read-outs stand apart in the source and are kept apart here.
# What was measured:
# DU145 = DU145 scattering inhibition (HGF dependent scattering); assay type: cell-based; conditions: Homo sapiens
# Text: (§1) HGF has well known activity in terms of inducing scattering and migration (wound healing) (Wells et al., Cell Motil Cytoskeleton. 2005 November 62(3):180-94; Miura et al., Urology 2001 December 58(6):1064-9; Nishimura et al., Int J Urol. 1998 May 5(3):276-81; Wang et al., Mol Cancer Ther. 2003 November; 2(11):1085-92; and Christensen et al., Cancer Res. 2003 Nov. 1; 63(21):7345-55).
# A549 = A549 wound healing inhibition (HGF dependent migration); assay type: cell-based; conditions: Homo sapiens, A549 cells, read-out: A549 WOUND HEALING INHIB IC50
# Text: as §1
# VEGF receptor KDR = target: T1, VEGF receptor KDR (Homo sapiens, UniProt P35968); experiment: In vitro receptor tyrosine kinase assay (DELFIA), VEGF receptor KDR; assay type: biochemical
# T1 construct: made in house; host or cells: Sf9 cells (Spodoptera frugiperda), baculovirus
# T1 sequence (P35968 806-1356): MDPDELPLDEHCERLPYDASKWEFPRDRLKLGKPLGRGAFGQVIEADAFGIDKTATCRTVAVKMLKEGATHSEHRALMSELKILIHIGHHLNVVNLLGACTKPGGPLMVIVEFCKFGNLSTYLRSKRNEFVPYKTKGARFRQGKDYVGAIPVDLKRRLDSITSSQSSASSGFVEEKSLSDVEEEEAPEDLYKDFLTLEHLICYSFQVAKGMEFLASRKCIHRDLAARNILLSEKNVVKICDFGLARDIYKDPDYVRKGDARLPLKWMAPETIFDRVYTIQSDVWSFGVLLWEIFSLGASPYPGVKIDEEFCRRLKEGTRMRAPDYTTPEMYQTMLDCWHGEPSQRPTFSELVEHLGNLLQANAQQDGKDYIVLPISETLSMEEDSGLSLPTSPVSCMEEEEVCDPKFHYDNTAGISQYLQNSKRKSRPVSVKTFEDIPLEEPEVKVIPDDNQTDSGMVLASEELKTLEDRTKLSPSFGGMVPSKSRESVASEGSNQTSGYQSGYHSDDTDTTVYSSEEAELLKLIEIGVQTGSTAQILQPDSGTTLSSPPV
# Experimental: In the case of VEGF receptor KDR a 1.6-kb cDNA corresponding to the catalytic domain of VEGFR2 or KDR (Genbank accession number AF035121 amino acid 806 to 1356) was cloned into the Pst I site of the pDEST20 Gateway vector (Invitrogen) for the production of a GST-tagged version of that enzyme.
# The GST-VEGFR2806-1356 protein was expressed in […] (Spodoptera frugiperda) upon infection with recombinant baculovirus construct. […] Cell pellets were frozen at −80° C. until purification was performed.
# The supernatant (cell extract) was used as starting material for purification of GST-VEGFR2806-1356.
# The supernatant was loaded onto a GST-agarose column (Sigma) equilibrated with PBS pH 7.3. Following a four column volume (CV) wash with PBS pH 7.3+1% Triton X-100 and 4 CV wash with buffer B (50 mM Tris pH 8.0, 20% glycerol and 100 mM NaCl), bound proteins were step eluted with 5 CV of buffer B supplemented with 5 mM DTT and 15 mM glutathion. GST-VEGFR2806-1356 enriched fractions from this chromatography step were pooled based on U.V. trace i.e. fractions with high O.D.280. Final GST-VEGFR2806-1356 protein preparations concentrations were about 0.7 mg/ml with purity approximating 70%.
# (§2) The coated plates were washed and stored at 4° C. […] After incubation, the kinase reactions were quenched with EDTA and the plates were washed.
# [1] = target: T2, recombinant human c-Met/HGF receptor (Homo sapiens, UniProt P08581); experiment: In vitro receptor tyrosine kinase assay (DELFIA), c-Met/HGF receptor; assay type: biochemical
# T2 construct: His tag (pBlueBacHis2A vector); made in house; host or cells: Hi-5 cells (Trichoplusia ni), baculovirus
# T2 sequence (P08581 1078-1337): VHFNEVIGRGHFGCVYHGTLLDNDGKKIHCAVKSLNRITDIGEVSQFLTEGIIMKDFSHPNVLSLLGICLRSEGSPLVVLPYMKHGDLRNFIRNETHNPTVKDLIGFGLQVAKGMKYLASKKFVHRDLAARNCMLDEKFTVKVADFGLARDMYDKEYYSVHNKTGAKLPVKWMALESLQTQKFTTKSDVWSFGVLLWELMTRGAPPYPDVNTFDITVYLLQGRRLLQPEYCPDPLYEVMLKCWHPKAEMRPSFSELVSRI
# Experimental: Cell pellets were frozen at −80° C. until purification was performed.
# as §2
# [2] = DU-145, HGF dependent scattering, DU145 cells, read-out: DU145 SCATTERING INHIB IC50
# [3] = GST-VEGFR2 806-1356, 0.6 uM ATP, DELFIA, read-out: VEGFR (IC50)
# [4] = recombinant c-Met IC, 10 uM ATP, DELFIA, read-out: C-Met (IC50)
# [5] = DU-145, read-out: DU145 […] IC50
SMILES,IC50 (DU145; [2]) [nM],IC50 (A549) [nM],IC50 (VEGF receptor KDR; read-out: VEGFR IC50) [nM],IC50 ([1]; read-out: CMET IC50) [nM],IC50 (VEGF receptor KDR; [3]) [nM],"IC50 [1, 4] [nM]",IC50 [1] [nM],IC50 (DU145; [5]) [nM]
CC(C)n1cnc(-c2cc3nccc(Oc4ccc(NC(=O)C5CC(=O)N(c6ccccc6)C5)cc4F)c3s2)c1 (centres unmarked),> 10000,1000 to 5000,> 500,250 to 500,,,,
CN1CCN(CCN(C)Cc2ccc(-c3cc4nccc(Oc5ccc(NC(=O)C6(C(=O)Nc7ccc(F)cc7)CC6)cc5F)c4s3)cc2)CC1,< 1000,1000 to 5000,< 50,< 50,,,,
O=C(Nc1ccc(Oc2ccnc3cc(-c4cn(CCCN5CCCC5)cn4)sc23)c(F)c1)C1(C(=O)Nc2ccccc2F)CC1,< 1000,< 1000,< 50,< 50,,,,
CCn1cnc(-c2cc3nccc(Oc4ccc(NC(=O)N5CCN(c6ccc(F)cc6)C5=O)cc4F)c3s2)c1,< 1000,< 1000,< 50,< 50,,,,
CCn1cnc(-c2cc3nccc(Oc4ccc(NC(=S)N5CCN(c6ccccc6)C5=O)cc4F)c3s2)c1,< 1000,< 1000,< 50,< 50,,,,
COc1ccccc1NC(=O)CC(=O)Nc1ccc(Oc2ccnc3cc(-c4ccc(OCCCN(C)C)nc4)sc23)c(F)c1,1000 to 5000,1000 to 5000,250 to 500,50 to 250,,,,
COc1ccccc1NC(=O)CC(=O)Nc1ccc(Oc2ccnc3cc(-c4ccc(OCCN5CCOCC5)cc4)sc23)c(F)c1,1000 to 5000,1000 to 5000,< 50,50 to 250,,,,
CCn1cnc(-c2cc3nccc(Oc4ccc(NC(=O)C5CCN(c6ccccc6)C5=O)cc4F)c3s2)c1 (centres unmarked),< 1000,< 1000,< 50,< 50,,,,
"CCn1cnc(-c2cc3nccc(Oc4ccc(NC(=O)CC(=O)Nc5ccccc5)cc4F)c3s2)c1 [Compound 5d, N^1-(4-(2-(1-Ethyl-1H-imidazol-4-yl)thieno[3,2-b]pyridin-7-yloxy)-3-fluorophenyl)-N^3-phenylmalonamide]",,,,,5,,19,
Cn1cnc(-c2cc3nccc(Oc4ccc(NC(=O)N5CCN(c6ccccc6)C5=O)cc4F)c3s2)c1,,< 1000,< 50,,,,,< 1000
Cn1cnc(-c2cc3nccc(Oc4ccc(NC(=O)CC(Nc5ccccc5)C(F)(F)F)cc4F)c3s2)c1 (centres unmarked),,1000 to 5000,50 to 250,,,,,1000 to 5000
CCn1cnc(-c2cc3nccc(Oc4ccc(NC(=O)CC(=O)Nc5ccccc5)cc4F)c3s2)c1 [drawing 291],,,50 to 250,< 50,,,,
CN(c1ccc(NC(=O)C2(C(=O)Nc3ccccc3)CC2)cc1F)c1ccnc2cc(-c3cn(C)cn3)sc12,< 1000,1000 to 5000,,50 to 250,,,,
Cn1cnc(-c2cc3nccc(Oc4ccc(NC(CC(=O)Nc5ccccc5)C(F)(F)F)cc4F)c3s2)c1 (centres unmarked),,1000 to 5000,< 50,,,,,1000 to 5000
"COc1ccccc1NC(=O)CC(=O)Nc1ccc(Oc2ccnc3cc(-c4ccc(CN5CCCC5)cc4)sc23)c(F)c1 [Compound 48, N^1-(3-Fluoro-4-(2-(4-(pyrrolidin-1-ylmethyl)phenyl)-thieno[3,2-b]pyridin-7-yloxy)phenyl)-N^3-(2-methoxyphenyl)malonamide]",,,,,13,60,,

# Second part, led by results:
IC50 (DU145; [2]) [nM],IC50 (A549) [nM],IC50 (VEGF receptor KDR; read-out: VEGFR IC50) [nM],IC50 ([1]; read-out: CMET IC50) [nM],IC50 (VEGF receptor KDR; [3]) [nM],"IC50 [1, 4] [nM]",SMILES,IC50 [1] [nM],IC50 (DU145; [5]) [nM]
< 1000,1000 to 5000,< 50,< 50,,,CCn1cnc(-c2cc3nccc(Oc4ccc(NC(=O)CC(=O)Nc5ccccc5OC)cc4F)c3s2)c1 [drawing 292],,
< 1000,< 1000,< 50,50 to 250,,,CCn1cc(-c2cc3nccc(Oc4ccc(NC(=O)CC(=O)Nc5ccccc5OC)cc4F)c3s2)nc1C,,
1000 to 5000,< 1000,50 to 250,50 to 250,,,CN(C)[C@@H]1CCN(C(=O)c2cc3nccc(Oc4ccc(NC(=O)CC(=O)Nc5ccccc5)cc4F)c3s2)C1 [drawing 294],,
1000 to 5000,1000 to 5000,50 to 250,250 to 500,,,Cn1ccnc1-c1cc2nccc(Oc3ccc(NC(=O)CS(=O)(=O)c4ccc(F)cc4)cc3F)c2s1,,
< 1000,1000 to 5000,< 50,< 50,,,CC(C)n1cnc(-c2cc3nccc(Oc4ccc(NC(=O)CC(=O)Nc5ccccc5F)cc4F)c3s2)c1,,
< 1000,< 1000,< 50,< 50,,,CCn1cnc(-c2cc3nccc(Oc4ccc(NC(=O)CC(=O)N5CCc6ccccc65)cc4F)c3s2)c1,,
1000 to 5000,< 1000,< 50,250 to 500,,,Cn1ccnc1-c1cc2nccc(Oc3ccc(NC(=O)CC(=O)Nc4cccnc4)cc3F)c2s1 [drawing 282],,
> 10000,> 10000,< 50,< 50,,,O=C(O)Cn1cnc(-c2cc3nccc(Oc4ccc(NC(=O)CC(=O)Nc5ccccc5)cc4F)c3s2)c1,,
< 1000,1000 to 5000,< 50,< 50,,,CN1CCN(Cc2ccc(-c3cc4nccc(Oc5ccc(NC(=O)CC(=O)Nc6ccccc6)cc5F)c4s3)nc2)CC1,,
< 1000,1000 to 5000,< 50,< 50,,,CN1CCN(Cc2ccc(-c3cc4nccc(Oc5ccc(NC(=O)CC(=O)Nc6ccccc6)cc5F)c4s3)cc2)CC1,,
< 1000,< 1000,50 to 250,50 to 250,,,COc1ccccc1NC(=O)CC(=O)Nc1ccc(Oc2ccnc3cc(-c4c[nH]cn4)sc23)c(F)c1,,
1000 to 5000,1000 to 5000,< 50,50 to 250,,,Cn1cncc1-c1cc2nccc(Oc3ccc(NC(=O)CC(=O)Nc4cccnc4)cc3F)c2s1 [drawing 290],,
,,,,3,25,"CCn1cnc(-c2cc3nccc(Oc4ccc(NC(=O)CC(=O)Nc5ccccc5OC)cc4F)c3s2)c1 [Compound 28b, N^1-(4-(2-(1-Ethyl-1H-imidazol-4-yl)thieno[3,2-b]pyridin-7-yloxy)-3-fluorophenyl)-N^3-(2-methoxyphenyl)malonamide]",,
,,,,14,173,"Cn1ccnc1-c1cc2nccc(Oc3ccc(NC(=O)CC(=O)Oc4ccccc4)cc3F)c2s1 [Compound 47, N-{3-Fluoro-4-[2-(1-methyl-1H-imidazol-2-yl)-thieno[3,2-b]pyridin-7-yloxy]-phenyl}-malonamic acid phenyl ester]",,
,,,,89,65,"CN(C)[C@@H]1CCN(C(=O)c2cc3nccc(Oc4ccc(NC(=O)CC(=O)Nc5ccccc5)cc4F)c3s2)C1 [Compound 5g, (R)—N^1-(4-(2-(3-(Dimethylamino)pyrrolidine-1-carbonyl)thieno[3,2-b]pyridin-7-yloxy)-3-fluorophenyl)-N^3-phenylmalonamide]",,
,,,,,24,"CCn1cnc(-c2cc3nccc(Oc4ccc(NC(=O)CC(=O)Nc5ccccc5F)cc4F)c3s2)c1 [Compound 30b, N^1-(4-(2-(1-Ethyl-1H-imidazol-4-yl)thieno[3,2-b]pyridin-7-yloxy)-3-fluorophenyl)-N^3-(2-fluorophenyl)malonamide]",,
,,< 50,< 50,,,O=C(CC(=O)Nc1ccc(Oc2ccnc3cc(C(=O)N4CCCC4)sc23)c(F)c1)Nc1ccccc1 [drawing 280],,
,,,,5,77,"CC(C(=O)Nc1ccccc1)C(=O)Nc1ccc(Oc2ccnc3cc(-c4nccn4C)sc23)c(F)c1 (centres unmarked) [Compound 38, N^1-(3-Fluoro-4-(2-(1-methyl-1H-imidazol-2-yl)thieno[3,2-b]pyridin-7-yloxy)phenyl)-2-methyl-N^3-phenylmalonamide]",,
,,,,199,270,"O=C(CC(=O)Nc1ccc(Oc2ccnc3ccsc23)c(F)c1)Nc1ccccc1 [Compound 5a, N^1-(3-Fluoro-4-(thieno[3,2-b]pyridin-7-yloxy)phenyl)-N^3-phenylmalonamide]",,
,,,,24,132,"Cn1cncc1-c1cc2nccc(Oc3ccc(NC(=O)CC(=O)Nc4cccnc4)cc3F)c2s1 [Compound 41, N-{3-Fluoro-4-[2-(3-methyl-3H-imidazol-4-yl)-thieno[3,2-b]pyridin-7-yloxy]-phenyl}-N′-pyridin-3-yl-malonamide]",,
